According to PubChem BioAssay (NCI):
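Cultured in 96-well plates, cells were exposed to test compound for 48 hours across five concentrations. The concentration for 50% growth inhibition is given as GI50. Definition used: TGI = concentration required for complete inhibition of growth.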

What was measured:
Assay in all cases: NCI anticancer screen, dose series, 48 h; in the data active means GI50 below about 0.43 µM; inactive means the rest
786-0 renal = system: 786-0 renal
A498 renal = system: A498 renal
A549 NSCLC = system: A549 NSCLC
ACHN renal = system: ACHN renal
BT-549 breast = system: BT-549 breast
CAKI-1 renal = system: CAKI-1 renal
CCRF-CEM leukemia = system: CCRF-CEM leukemia
COLO 205 colon = system: COLO 205 colon
DU-145 prostate = system: DU-145 prostate
EKVX NSCLC = system: EKVX NSCLC
HCC-2998 colon = system: HCC-2998 colon
HCT-116 colon = system: HCT-116 colon
HCT-15 colon = system: HCT-15 colon
HL-60(TB) leukemia = system: HL-60(TB) leukemia
HOP-62 NSCLC = system: HOP-62 NSCLC
HOP-92 NSCLC = system: HOP-92 NSCLC
HS 578T breast = system: HS 578T breast
HT29 colon = system: HT29 colon
IGROV1 ovarian = system: IGROV1 ovarian
K-562 leukemia = system: K-562 leukemia
KM12 colon = system: KM12 colon
LOX IMVI melanoma = system: LOX IMVI melanoma
M14 melanoma = system: M14 melanoma
MALME-3M melanoma = system: MALME-3M melanoma
MCF7 breast = system: MCF7 breast
MDA-MB-231 breast = system: MDA-MB-231 breast
MOLT-4 leukemia = system: MOLT-4 leukemia
NCI-H226 lung = system: NCI-H226 lung
NCI-H23 lung = system: NCI-H23 lung
NCI-H460 lung = system: NCI-H460 lung
NCI-H522 lung = system: NCI-H522 lung
NCI/ADR-RES ovarian = system: NCI/ADR-RES ovarian
OVCAR-3 ovarian = system: OVCAR-3 ovarian
OVCAR-4 ovarian = system: OVCAR-4 ovarian
OVCAR-5 ovarian = system: OVCAR-5 ovarian
OVCAR-8 ovarian = system: OVCAR-8 ovarian
PC-3 prostate = system: PC-3 prostate
RPMI-8226 leukemia = system: RPMI-8226 leukemia
RXF 393 renal = system: RXF 393 renal
SF-268 CNS = system: SF-268 CNS
SF-295 CNS = system: SF-295 CNS
SF-539 CNS = system: SF-539 CNS
SK-MEL-2 melanoma = system: SK-MEL-2 melanoma
SK-MEL-28 melanoma = system: SK-MEL-28 melanoma
SK-MEL-5 melanoma = system: SK-MEL-5 melanoma
SK-OV-3 ovarian = system: SK-OV-3 ovarian
SN12C renal = system: SN12C renal
SNB-19 CNS = system: SNB-19 CNS
SNB-75 CNS = system: SNB-75 CNS
SR leukemia = system: SR leukemia
SW-620 colon = system: SW-620 colon
T-47D breast = system: T-47D breast
TK-10 renal = system: TK-10 renal
U251 CNS = system: U251 CNS
UACC-257 melanoma = system: UACC-257 melanoma
UACC-62 melanoma = system: UACC-62 melanoma
UO-31 renal = system: UO-31 renal

Cc1ccc(C2=NN(c3ccc(S(C)(=O)=O)cc3)C(=O)CC2)cc1
23.4 µM: TGI (SF-539 CNS)
> 100 µM: TGI (786-0 renal) | TGI (A549 NSCLC) | TGI (ACHN renal) | TGI (BT-549 breast) | TGI (CAKI-1 renal) | TGI (CCRF-CEM leukemia) | TGI (DU-145 prostate) | TGI (EKVX NSCLC) | TGI (HCC-2998 colon) | TGI (HCT-15 colon) | TGI (HOP-62 NSCLC) | TGI (HS 578T breast) | TGI (IGROV1 ovarian) | TGI (K-562 leukemia) | TGI (KM12 colon) | TGI (LOX IMVI melanoma) | TGI (M14 melanoma) | TGI (MALME-3M melanoma) | TGI (MCF7 breast) | TGI (MDA-MB-231 breast) | TGI (MOLT-4 leukemia) | TGI (NCI-H226 lung) | TGI (NCI-H23 lung) | TGI (NCI-H460 lung) | TGI (NCI/ADR-RES ovarian) | TGI (OVCAR-4 ovarian) | TGI (OVCAR-5 ovarian) | TGI (OVCAR-8 ovarian) | TGI (PC-3 prostate) | TGI (RPMI-8226 leukemia) | TGI (SF-268 CNS) | TGI (SK-MEL-2 melanoma) | TGI (SK-MEL-28 melanoma) | TGI (SN12C renal) | TGI (SNB-19 CNS) | TGI (SR leukemia) | TGI (SW-620 colon) | TGI (T-47D breast) | TGI (TK-10 renal) | TGI (U251 CNS) | TGI (UACC-257 melanoma) | TGI (UACC-62 melanoma) | TGI (UO-31 renal)
> 42.1 µM: TGI (SK-MEL-5 melanoma)
16.8 µM: TGI (SF-295 CNS)
> 85.4 µM: TGI (HCT-116 colon)
7.73 µM: TGI (A498 renal)
active: GI50 (A498 renal) 0.282 µM | GI50 (HT29 colon) 0.349 µM | GI50 (K-562 leukemia) 0.408 µM | GI50 (M14 melanoma) 0.419 µM | GI50 (NCI-H460 lung) 0.402 µM | GI50 (NCI-H522 lung) 0.225 µM | GI50 (NCI/ADR-RES ovarian) 0.322 µM | GI50 (OVCAR-3 ovarian) 0.349 µM | GI50 (SF-295 CNS) 0.396 µM | GI50 (SR leukemia) 0.4 µM | GI50 (SW-620 colon) 0.368 µM
2.35 µM: TGI (OVCAR-3 ovarian)
> 32.9 µM: TGI (HT29 colon)
21.5 µM: TGI (SK-OV-3 ovarian)
inactive: GI50 (786-0 renal) 7.26 µM | GI50 (A549 NSCLC) 0.615 µM | GI50 (ACHN renal) 8.52 µM | GI50 (BT-549 breast) 0.569 µM | GI50 (CAKI-1 renal) 1.64 µM | GI50 (CCRF-CEM leukemia) 0.843 µM | GI50 (COLO 205 colon) 0.587 µM | GI50 (DU-145 prostate) 2.48 µM | GI50 (EKVX NSCLC) 3.84 µM | GI50 (HCC-2998 colon) 3.1 µM | GI50 (HCT-116 colon) 0.431 µM | GI50 (HCT-15 colon) 0.74 µM | GI50 (HL-60(TB) leukemia) 0.525 µM | GI50 (HOP-62 NSCLC) 1.78 µM | GI50 (HOP-92 NSCLC) 1.02 µM | GI50 (HS 578T breast) 2.24 µM | GI50 (IGROV1 ovarian) 1.82 µM | GI50 (KM12 colon) 0.452 µM | GI50 (LOX IMVI melanoma) 0.806 µM | GI50 (MALME-3M melanoma) 51.9 µM | GI50 (MCF7 breast) 1.3 µM | GI50 (MDA-MB-231 breast) 1.37 µM | GI50 (MOLT-4 leukemia) 0.875 µM | GI50 (NCI-H226 lung) 42.3 µM | GI50 (NCI-H23 lung) 2.13 µM | GI50 (OVCAR-4 ovarian) > 27.3 µM | GI50 (OVCAR-5 ovarian) 10.1 µM | GI50 (OVCAR-8 ovarian) 1.35 µM | GI50 (PC-3 prostate) 1.78 µM | GI50 (RPMI-8226 leukemia) 1.62 µM | GI50 (RXF 393 renal) 1.11 µM | GI50 (SF-268 CNS) 6.25 µM | GI50 (SF-539 CNS) 1.45 µM | GI50 (SK-MEL-2 melanoma) 0.541 µM | GI50 (SK-MEL-28 melanoma) 2.58 µM | GI50 (SK-MEL-5 melanoma) 0.633 µM | GI50 (SK-OV-3 ovarian) 1.57 µM | GI50 (SN12C renal) 5.57 µM | GI50 (SNB-19 CNS) 6.42 µM | GI50 (SNB-75 CNS) 0.542 µM | GI50 (T-47D breast) 3.82 µM | GI50 (TK-10 renal) 12.8 µM | GI50 (U251 CNS) 0.579 µM | GI50 (UACC-257 melanoma) 3.4 µM | GI50 (UACC-62 melanoma) 0.493 µM | GI50 (UO-31 renal) 7.85 µM
> 26.1 µM: TGI (RXF 393 renal)
> 28.8 µM: TGI (HOP-92 NSCLC)
1.04 µM: TGI (NCI-H522 lung)
5.16 µM: TGI (COLO 205 colon)
9.25 µM: TGI (SNB-75 CNS)

Nc1nc2cc(O)ccc2n2cc3c(F)cccc3c12
32.8 µM: TGI (SR leukemia)
> 93.1 µM: TGI (CAKI-1 renal)
7.34 µM: TGI (SNB-75 CNS)
> 100 µM: TGI (786-0 renal) | TGI (A498 renal) | TGI (A549 NSCLC) | TGI (ACHN renal) | TGI (BT-549 breast) | TGI (CCRF-CEM leukemia) | TGI (COLO 205 colon) | TGI (DU-145 prostate) | TGI (EKVX NSCLC) | TGI (HCC-2998 colon) | TGI (HCT-116 colon) | TGI (HCT-15 colon) | TGI (HL-60(TB) leukemia) | TGI (HOP-62 NSCLC) | TGI (HS 578T breast) | TGI (HT29 colon) | TGI (IGROV1 ovarian) | TGI (K-562 leukemia) | TGI (KM12 colon) | TGI (LOX IMVI melanoma) | TGI (M14 melanoma) | TGI (MALME-3M melanoma) | TGI (MCF7 breast) | TGI (MDA-MB-231 breast) | TGI (MOLT-4 leukemia) | TGI (NCI-H226 lung) | TGI (NCI-H23 lung) | TGI (NCI-H460 lung) | TGI (NCI-H522 lung) | TGI (NCI/ADR-RES ovarian) | TGI (OVCAR-3 ovarian) | TGI (OVCAR-4 ovarian) | TGI (OVCAR-5 ovarian) | TGI (OVCAR-8 ovarian) | TGI (PC-3 prostate) | TGI (RPMI-8226 leukemia) | TGI (SF-268 CNS) | TGI (SF-295 CNS) | TGI (SF-539 CNS) | TGI (SK-MEL-2 melanoma) | TGI (SK-MEL-28 melanoma) | TGI (SK-MEL-5 melanoma) | TGI (SK-OV-3 ovarian) | TGI (SN12C renal) | TGI (SNB-19 CNS) | TGI (SW-620 colon) | TGI (T-47D breast) | TGI (TK-10 renal) | TGI (U251 CNS) | TGI (UACC-257 melanoma) | TGI (UACC-62 melanoma)
active: GI50 (NCI-H460 lung) 0.402 µM | GI50 (SK-MEL-5 melanoma) 0.334 µM
> 79.8 µM: TGI (UO-31 renal)
26.8 µM: TGI (RXF 393 renal)
> 85.6 µM: TGI (HOP-92 NSCLC)
inactive: GI50 (786-0 renal) 3.56 µM | GI50 (A498 renal) 10.1 µM | GI50 (A549 NSCLC) 1.27 µM | GI50 (ACHN renal) 1.85 µM | GI50 (BT-549 breast) 6.92 µM | GI50 (CAKI-1 renal) 0.733 µM | GI50 (CCRF-CEM leukemia) 2.28 µM | GI50 (COLO 205 colon) 5.86 µM | GI50 (DU-145 prostate) 6.38 µM | GI50 (EKVX NSCLC) 3.38 µM | GI50 (HCC-2998 colon) > 20.4 µM | GI50 (HCT-116 colon) 0.724 µM | GI50 (HCT-15 colon) 0.62 µM | GI50 (HL-60(TB) leukemia) 1.23 µM | GI50 (HOP-62 NSCLC) 2.14 µM | GI50 (HOP-92 NSCLC) 2.43 µM | GI50 (HS 578T breast) 3.68 µM | GI50 (HT29 colon) 4.46 µM | GI50 (IGROV1 ovarian) 1.67 µM | GI50 (K-562 leukemia) 0.447 µM | GI50 (KM12 colon) 0.654 µM | GI50 (LOX IMVI melanoma) 1.02 µM | GI50 (M14 melanoma) 1.24 µM | GI50 (MALME-3M melanoma) 3.78 µM | GI50 (MCF7 breast) 1.26 µM | GI50 (MDA-MB-231 breast) 4.74 µM | GI50 (MOLT-4 leukemia) 1.51 µM | GI50 (NCI-H226 lung) 2.97 µM | GI50 (NCI-H23 lung) 3.91 µM | GI50 (NCI-H522 lung) 1.22 µM | GI50 (NCI/ADR-RES ovarian) 0.964 µM | GI50 (OVCAR-3 ovarian) 6.21 µM | GI50 (OVCAR-4 ovarian) 6.81 µM | GI50 (OVCAR-5 ovarian) 9.85 µM | GI50 (OVCAR-8 ovarian) 3.47 µM | GI50 (PC-3 prostate) 3.67 µM | GI50 (RPMI-8226 leukemia) 3.37 µM | GI50 (RXF 393 renal) 1.75 µM | GI50 (SF-268 CNS) 1.98 µM | GI50 (SF-295 CNS) 2.46 µM | GI50 (SF-539 CNS) 1.31 µM | GI50 (SK-MEL-2 melanoma) 3.76 µM | GI50 (SK-MEL-28 melanoma) 4.86 µM | GI50 (SK-OV-3 ovarian) 2.37 µM | GI50 (SN12C renal) 2.22 µM | GI50 (SNB-19 CNS) 2.31 µM | GI50 (SNB-75 CNS) 1.44 µM | GI50 (SR leukemia) 0.462 µM | GI50 (SW-620 colon) 0.493 µM | GI50 (T-47D breast) 5.89 µM | GI50 (TK-10 renal) > 20.9 µM | GI50 (U251 CNS) 2.64 µM | GI50 (UACC-257 melanoma) 4.37 µM | GI50 (UACC-62 melanoma) 1.23 µM | GI50 (UO-31 renal) 0.917 µM
